Source: the kinase profiling compilation of Christmann-Franck et al. (2016)

Columns and labels:
Test in all cases: radiometric filter-binding kinase assay
AURKB (human) = AURKB (human) (UniProt Q96GD4)
BRSK2 (human) = BRSK2 (human) (UniProt Q8IWQ3)
CAMKK2 (human) = CAMKK2 (human) (UniProt Q96RR4)
CHEK1 (human) = CHEK1 (human) (UniProt O14757)
CLK2 (human) = CLK2 (human) (UniProt P49760)
CSNK2A1 (human) = CSNK2A1 (human) (UniProt P68400)
CaMK1 (human) = CaMK1 (human) (UniProt Q14012)
DAPK1 (human) = DAPK1 (human) (UniProt P53355)
DYRK1A (human) = DYRK1A (human) (UniProt Q13627)
DYRK3 (human) = DYRK3 (human) (UniProt O43781)
EPHB2 (human) = EPHB2 (human) (UniProt P29323)
FGFR1 (human) = FGFR1 (human) (UniProt P11362)
GCK (human) = GCK (human) (UniProt Q12851)
GCK (human), sequence (Q12851 whole entry, looked up): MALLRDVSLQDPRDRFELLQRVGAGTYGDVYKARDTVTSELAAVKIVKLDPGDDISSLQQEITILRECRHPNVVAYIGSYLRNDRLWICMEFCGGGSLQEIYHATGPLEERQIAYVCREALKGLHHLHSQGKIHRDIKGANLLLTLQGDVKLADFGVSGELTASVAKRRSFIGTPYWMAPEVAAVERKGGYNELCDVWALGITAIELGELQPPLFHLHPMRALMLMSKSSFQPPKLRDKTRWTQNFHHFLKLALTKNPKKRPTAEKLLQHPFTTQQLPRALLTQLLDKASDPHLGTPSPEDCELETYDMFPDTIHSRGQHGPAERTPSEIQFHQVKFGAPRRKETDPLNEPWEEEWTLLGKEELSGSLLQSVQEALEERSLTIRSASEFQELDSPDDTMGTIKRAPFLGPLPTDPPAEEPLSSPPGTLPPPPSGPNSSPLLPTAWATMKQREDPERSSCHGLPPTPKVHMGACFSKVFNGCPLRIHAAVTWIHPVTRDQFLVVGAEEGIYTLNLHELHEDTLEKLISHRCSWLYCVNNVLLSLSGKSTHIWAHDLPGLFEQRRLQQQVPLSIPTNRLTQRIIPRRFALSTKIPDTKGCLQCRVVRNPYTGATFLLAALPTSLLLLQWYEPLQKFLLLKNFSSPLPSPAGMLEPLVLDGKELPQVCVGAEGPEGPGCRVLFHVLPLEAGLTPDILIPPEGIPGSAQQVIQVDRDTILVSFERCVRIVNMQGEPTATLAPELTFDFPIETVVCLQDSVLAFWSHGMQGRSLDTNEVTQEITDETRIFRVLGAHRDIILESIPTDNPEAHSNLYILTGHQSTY

HIPK1 (human) = HIPK1 (human) (UniProt Q86Z02)
HIPK2 (human) = HIPK2 (human) (UniProt Q9H2X6)
IGF1R (human) = IGF1R (human) (UniProt P08069)
IGF1R (human), sequence (P08069 whole entry, looked up): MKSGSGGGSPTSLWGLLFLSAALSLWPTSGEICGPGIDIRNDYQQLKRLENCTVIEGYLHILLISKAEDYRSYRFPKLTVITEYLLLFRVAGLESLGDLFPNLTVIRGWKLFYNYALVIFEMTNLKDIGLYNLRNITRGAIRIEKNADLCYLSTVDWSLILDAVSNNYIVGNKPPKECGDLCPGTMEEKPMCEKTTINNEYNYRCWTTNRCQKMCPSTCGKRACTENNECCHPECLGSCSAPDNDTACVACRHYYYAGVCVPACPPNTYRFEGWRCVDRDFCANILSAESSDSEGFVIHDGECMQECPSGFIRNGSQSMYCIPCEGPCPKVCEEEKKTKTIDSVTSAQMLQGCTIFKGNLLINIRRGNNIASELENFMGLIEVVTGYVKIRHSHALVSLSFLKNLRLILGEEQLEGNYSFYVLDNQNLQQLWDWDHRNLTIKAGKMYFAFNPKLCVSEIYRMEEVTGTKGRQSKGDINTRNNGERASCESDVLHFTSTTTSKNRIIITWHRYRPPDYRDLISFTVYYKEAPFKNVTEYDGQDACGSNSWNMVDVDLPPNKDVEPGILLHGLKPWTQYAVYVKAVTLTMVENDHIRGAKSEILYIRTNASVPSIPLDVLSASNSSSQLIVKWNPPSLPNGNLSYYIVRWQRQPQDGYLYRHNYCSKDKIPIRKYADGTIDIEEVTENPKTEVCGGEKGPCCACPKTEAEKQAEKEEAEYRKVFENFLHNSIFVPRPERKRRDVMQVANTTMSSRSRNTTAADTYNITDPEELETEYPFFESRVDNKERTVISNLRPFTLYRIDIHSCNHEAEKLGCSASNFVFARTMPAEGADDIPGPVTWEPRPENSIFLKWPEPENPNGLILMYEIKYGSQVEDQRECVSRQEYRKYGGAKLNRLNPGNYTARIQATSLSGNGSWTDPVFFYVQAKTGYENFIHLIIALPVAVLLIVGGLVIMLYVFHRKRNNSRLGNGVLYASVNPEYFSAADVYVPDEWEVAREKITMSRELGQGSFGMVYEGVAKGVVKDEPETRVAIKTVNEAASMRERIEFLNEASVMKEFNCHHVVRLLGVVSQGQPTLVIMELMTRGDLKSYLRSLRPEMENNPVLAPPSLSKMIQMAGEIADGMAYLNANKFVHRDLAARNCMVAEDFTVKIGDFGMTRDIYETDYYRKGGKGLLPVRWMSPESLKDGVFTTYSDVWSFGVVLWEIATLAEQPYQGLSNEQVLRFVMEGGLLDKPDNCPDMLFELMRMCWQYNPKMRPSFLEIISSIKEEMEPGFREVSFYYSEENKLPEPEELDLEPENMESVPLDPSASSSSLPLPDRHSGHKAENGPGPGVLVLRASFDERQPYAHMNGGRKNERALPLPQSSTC

JAK2 JH1 JH2 (human) = JAK2 JH1 JH2 (human) (UniProt O60674)
LCK (mouse) = conditions: accession and sequence are those of the human protein
MAPK10 (human) = MAPK10 (human) (UniProt P53779)
MAPK10 (human), sequence (P53779 whole entry, looked up): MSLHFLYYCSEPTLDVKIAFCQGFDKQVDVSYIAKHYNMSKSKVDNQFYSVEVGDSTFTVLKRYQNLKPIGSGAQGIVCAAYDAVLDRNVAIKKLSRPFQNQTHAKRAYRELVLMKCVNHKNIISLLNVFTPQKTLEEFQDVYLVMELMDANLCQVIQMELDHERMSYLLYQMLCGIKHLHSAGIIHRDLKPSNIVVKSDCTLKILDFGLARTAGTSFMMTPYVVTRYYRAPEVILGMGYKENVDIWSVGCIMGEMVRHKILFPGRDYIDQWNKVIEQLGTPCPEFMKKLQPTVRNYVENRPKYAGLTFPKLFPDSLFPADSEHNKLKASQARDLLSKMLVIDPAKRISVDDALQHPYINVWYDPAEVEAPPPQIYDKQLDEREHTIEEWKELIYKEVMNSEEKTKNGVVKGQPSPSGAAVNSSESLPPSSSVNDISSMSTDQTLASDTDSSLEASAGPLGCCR

MAPK11 (human) = MAPK11 (human) (UniProt Q15759)
MAPK13 (human) = MAPK13 (human) (UniProt O15264)
MAPK8 (human) = MAPK8 (human) (UniProt P45983)
MAPK8 (human), sequence (P45983 whole entry, looked up): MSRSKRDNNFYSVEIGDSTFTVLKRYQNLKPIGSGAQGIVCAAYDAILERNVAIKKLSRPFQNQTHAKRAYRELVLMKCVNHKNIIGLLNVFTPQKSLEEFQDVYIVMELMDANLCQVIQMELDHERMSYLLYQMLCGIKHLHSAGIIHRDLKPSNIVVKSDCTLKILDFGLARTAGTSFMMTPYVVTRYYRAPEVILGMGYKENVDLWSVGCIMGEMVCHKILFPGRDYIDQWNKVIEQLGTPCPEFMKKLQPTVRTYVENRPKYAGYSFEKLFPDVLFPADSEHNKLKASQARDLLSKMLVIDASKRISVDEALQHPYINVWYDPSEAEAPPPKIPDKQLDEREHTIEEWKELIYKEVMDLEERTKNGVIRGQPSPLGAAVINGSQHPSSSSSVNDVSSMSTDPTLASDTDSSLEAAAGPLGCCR

MAPKAPK5 (human) = MAPKAPK5 (human) (UniProt Q8IW41)
MARK3 (human) = MARK3 (human) (UniProt P27448)
MARK3 (human), sequence (P27448 whole entry, looked up): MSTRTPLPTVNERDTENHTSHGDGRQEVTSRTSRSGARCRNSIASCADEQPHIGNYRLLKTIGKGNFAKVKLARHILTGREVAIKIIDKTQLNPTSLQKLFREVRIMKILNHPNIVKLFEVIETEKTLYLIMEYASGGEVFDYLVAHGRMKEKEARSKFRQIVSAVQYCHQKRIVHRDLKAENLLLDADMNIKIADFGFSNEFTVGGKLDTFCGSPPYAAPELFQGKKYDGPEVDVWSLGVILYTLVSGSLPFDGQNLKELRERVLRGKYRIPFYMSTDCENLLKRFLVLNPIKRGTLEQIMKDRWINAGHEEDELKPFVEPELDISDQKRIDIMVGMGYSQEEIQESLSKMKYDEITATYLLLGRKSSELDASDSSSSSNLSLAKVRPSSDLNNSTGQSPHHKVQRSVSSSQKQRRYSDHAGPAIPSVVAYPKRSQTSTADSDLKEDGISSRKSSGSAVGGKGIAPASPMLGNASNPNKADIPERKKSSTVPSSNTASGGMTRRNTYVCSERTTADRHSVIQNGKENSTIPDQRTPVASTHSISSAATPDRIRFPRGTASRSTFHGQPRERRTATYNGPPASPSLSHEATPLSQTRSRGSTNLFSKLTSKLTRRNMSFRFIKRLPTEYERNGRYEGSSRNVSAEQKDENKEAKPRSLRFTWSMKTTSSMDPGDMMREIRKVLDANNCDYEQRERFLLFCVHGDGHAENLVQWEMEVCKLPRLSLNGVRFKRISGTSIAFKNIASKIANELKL

MINK1 (human) = MINK1 (human) (UniProt Q8N4C8)
MKNK1 (human) = MKNK1 (human) (UniProt Q9BUB5)
[1] = tested on: PAK2 (human), Q13177 [T402E]
PHKG1 (human) = PHKG1 (human) (UniProt Q16816)
PIM3 (human) = PIM3 (human) (UniProt Q86V86)
ROCK2 (rat) = conditions: accession and sequence are those of the human protein
[2] = tested on: SGK1 (human), O00141 [S422D]
SRPK1 (human) = SRPK1 (human) (UniProt Q96SB4)
SRPK1 (human), sequence (Q96SB4 whole entry, looked up): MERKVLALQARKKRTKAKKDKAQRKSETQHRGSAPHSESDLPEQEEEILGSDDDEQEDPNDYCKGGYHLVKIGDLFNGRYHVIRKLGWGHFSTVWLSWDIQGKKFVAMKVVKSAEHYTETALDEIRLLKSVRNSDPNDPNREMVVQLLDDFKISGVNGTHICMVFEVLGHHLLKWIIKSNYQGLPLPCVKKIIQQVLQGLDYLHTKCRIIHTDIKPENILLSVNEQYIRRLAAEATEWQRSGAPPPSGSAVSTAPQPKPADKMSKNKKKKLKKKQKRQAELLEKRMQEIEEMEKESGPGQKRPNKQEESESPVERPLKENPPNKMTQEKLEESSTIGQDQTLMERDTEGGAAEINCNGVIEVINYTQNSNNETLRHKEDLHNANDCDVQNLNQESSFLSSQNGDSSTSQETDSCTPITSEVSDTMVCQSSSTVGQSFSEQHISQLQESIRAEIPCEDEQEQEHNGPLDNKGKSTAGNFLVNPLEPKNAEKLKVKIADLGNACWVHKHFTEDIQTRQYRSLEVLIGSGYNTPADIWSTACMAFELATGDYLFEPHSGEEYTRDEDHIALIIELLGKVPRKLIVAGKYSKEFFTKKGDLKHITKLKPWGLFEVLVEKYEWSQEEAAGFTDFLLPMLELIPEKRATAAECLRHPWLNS

STK3 (human) = STK3 (human) (UniProt Q13188)
TAOK1 (human) = TAOK1 (human) (UniProt Q7L7X3)
TBK1 (human) = TBK1 (human) (UniProt Q9UHD2)
YES1 (human) = YES1 (human) (UniProt P07947)

CLK2 (human), sequence (P49760 whole entry, looked up): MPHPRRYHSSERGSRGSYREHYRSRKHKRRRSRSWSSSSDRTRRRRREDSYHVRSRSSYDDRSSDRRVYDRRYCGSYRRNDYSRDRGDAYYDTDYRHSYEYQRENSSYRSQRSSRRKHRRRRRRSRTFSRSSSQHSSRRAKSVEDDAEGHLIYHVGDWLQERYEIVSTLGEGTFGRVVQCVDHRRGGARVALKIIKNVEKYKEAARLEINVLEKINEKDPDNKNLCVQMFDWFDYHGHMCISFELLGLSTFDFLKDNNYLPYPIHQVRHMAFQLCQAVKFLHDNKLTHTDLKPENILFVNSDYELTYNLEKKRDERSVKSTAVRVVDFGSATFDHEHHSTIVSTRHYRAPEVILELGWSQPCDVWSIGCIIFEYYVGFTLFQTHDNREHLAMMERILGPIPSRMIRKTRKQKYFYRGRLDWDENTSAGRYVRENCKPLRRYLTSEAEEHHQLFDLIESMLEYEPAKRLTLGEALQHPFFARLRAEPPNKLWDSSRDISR

SMILES: NC(=O)c1ccc(-c2ccc(Oc3cncc4sc(-c5nn[nH]n5)cc34)cc2)cc1
- residual activity (AURKB (human); compound 1.0 µM): 84%
- residual activity (AURKB (human); compound 10.0 µM): 58%
- residual activity (BRSK2 (human); compound 1.0 µM): 92%
- residual activity (BRSK2 (human); compound 10.0 µM): 95%
- residual activity (CAMKK2 (human); compound 1.0 µM): 84%
- residual activity (CAMKK2 (human); compound 10.0 µM): 23%
- residual activity (CHEK1 (human); compound 1.0 µM): 79%
- residual activity (CHEK1 (human); compound 10.0 µM): 87%
- residual activity (CLK2 (human); compound 1.0 µM): 80%
- residual activity (CLK2 (human); compound 10.0 µM): 12%
- residual activity (CSNK2A1 (human); compound 1.0 µM): 30%
- residual activity (CSNK2A1 (human); compound 10.0 µM): 6%
- residual activity (CaMK1 (human); compound 1.0 µM): 105%
- residual activity (CaMK1 (human); compound 10.0 µM): 85%
- residual activity (DAPK1 (human); compound 1.0 µM): 88%
- residual activity (DAPK1 (human); compound 10.0 µM): 18%
- residual activity (DYRK1A (human); compound 1.0 µM): 21%
- residual activity (DYRK1A (human); compound 10.0 µM): 3%
- residual activity (DYRK3 (human); compound 1.0 µM): 15%
- residual activity (DYRK3 (human); compound 10.0 µM): 6%
- residual activity (EPHB2 (human); compound 1.0 µM): 106%
- residual activity (EPHB2 (human); compound 10.0 µM): 99%
- residual activity (FGFR1 (human); compound 1.0 µM): 105%
- residual activity (FGFR1 (human); compound 10.0 µM): 61%
- residual activity (GCK (human); compound 1.0 µM): 78%
- residual activity (GCK (human); compound 10.0 µM): 13%
- residual activity (HIPK1 (human); compound 1.0 µM): 104%
- residual activity (HIPK1 (human); compound 10.0 µM): 9%
- residual activity (HIPK2 (human); compound 1.0 µM): 64%
- residual activity (HIPK2 (human); compound 10.0 µM): 10%
- residual activity (IGF1R (human); compound 1.0 µM): 107%
- residual activity (IGF1R (human); compound 10.0 µM): 95%
- residual activity (JAK2 JH1 JH2 (human); compound 1.0 µM): 97%
- residual activity (JAK2 JH1 JH2 (human); compound 10.0 µM): 74%
- residual activity (LCK (mouse); compound 1.0 µM): 113%
- residual activity (LCK (mouse); compound 10.0 µM): 99%
- residual activity (MAPK10 (human); compound 1.0 µM): 105%
- residual activity (MAPK10 (human); compound 10.0 µM): 72%
- residual activity (MAPK11 (human); compound 1.0 µM): 97%
- residual activity (MAPK11 (human); compound 10.0 µM): 104%
- residual activity (MAPK13 (human); compound 1.0 µM): 92%
- residual activity (MAPK13 (human); compound 10.0 µM): 54%
- residual activity (MAPK8 (human); compound 1.0 µM): 93%
- residual activity (MAPK8 (human); compound 10.0 µM): 77%
- residual activity (MAPKAPK5 (human); compound 1.0 µM): 104%
- residual activity (MAPKAPK5 (human); compound 10.0 µM): 56%
- residual activity (MARK3 (human); compound 1.0 µM): 94%
- residual activity (MARK3 (human); compound 10.0 µM): 71%
- residual activity (MINK1 (human); compound 1.0 µM): 84%
- residual activity (MINK1 (human); compound 10.0 µM): 21%
- residual activity (MKNK1 (human); compound 1.0 µM): 100%
- residual activity (MKNK1 (human); compound 10.0 µM): 84%
- residual activity ([1]; compound 1.0 µM): 93%
- residual activity ([1]; compound 10.0 µM): 90%
- residual activity (PHKG1 (human); compound 1.0 µM): 100%
- residual activity (PHKG1 (human); compound 10.0 µM): 84%
- residual activity (PIM3 (human); compound 1.0 µM): 79%
- residual activity (PIM3 (human); compound 10.0 µM): 21%
- residual activity (ROCK2 (rat); compound 1.0 µM): 73%
- residual activity (ROCK2 (rat); compound 10.0 µM): 38%
- residual activity ([2]; compound 1.0 µM): 100%
- residual activity ([2]; compound 10.0 µM): 68%
- residual activity (SRPK1 (human); compound 1.0 µM): 99%
- residual activity (SRPK1 (human); compound 10.0 µM): 48%
- residual activity (STK3 (human); compound 1.0 µM): 98%
- residual activity (STK3 (human); compound 10.0 µM): 75%
- residual activity (TAOK1 (human); compound 1.0 µM): 82%
- residual activity (TAOK1 (human); compound 10.0 µM): 36%
- residual activity (TBK1 (human); compound 1.0 µM): 87%
- residual activity (TBK1 (human); compound 10.0 µM): 63%
- residual activity (YES1 (human); compound 1.0 µM): 91%
- residual activity (YES1 (human); compound 10.0 µM): 87%

SMILES: COc1cc(O)c2c(c1)/C=C/C[C@H](O)[C@H](O)C(=O)/C=C\C[C@H](C)OC2=O
- residual activity (AURKB (human); compound 0.1 µM): 94%
- residual activity (AURKB (human); compound 1.0 µM): 74%
- residual activity (BRSK2 (human); compound 0.1 µM): 84%
- residual activity (BRSK2 (human); compound 1.0 µM): 88%
- residual activity (CAMKK2 (human); compound 0.1 µM): 87%
- residual activity (CAMKK2 (human); compound 1.0 µM): 57%
- residual activity (CHEK1 (human); compound 0.1 µM): 114%
- residual activity (CHEK1 (human); compound 1.0 µM): 92%
- residual activity (CLK2 (human); compound 0.1 µM): 96%
- residual activity (CLK2 (human); compound 1.0 µM): 90%
- residual activity (CSNK2A1 (human); compound 0.1 µM): 106%
- residual activity (CSNK2A1 (human); compound 1.0 µM): 77%
- residual activity (CaMK1 (human); compound 0.1 µM): 88%
- residual activity (CaMK1 (human); compound 1.0 µM): 105%
- residual activity (DAPK1 (human); compound 0.1 µM): 108%
- residual activity (DAPK1 (human); compound 1.0 µM): 94%
- residual activity (DYRK1A (human); compound 0.1 µM): 117%
- residual activity (DYRK1A (human); compound 1.0 µM): 97%
- residual activity (DYRK3 (human); compound 0.1 µM): 94%
- residual activity (DYRK3 (human); compound 1.0 µM): 101%
- residual activity (EPHB2 (human); compound 1.0 µM): 75%
- residual activity (FGFR1 (human); compound 1.0 µM): 87%
- residual activity (GCK (human); compound 0.1 µM): 121%
- residual activity (GCK (human); compound 1.0 µM): 80%
- residual activity (HIPK1 (human); compound 0.1 µM): 102%
- residual activity (HIPK1 (human); compound 1.0 µM): 98%
- residual activity (HIPK2 (human); compound 0.1 µM): 98%
- residual activity (HIPK2 (human); compound 1.0 µM): 82%
- residual activity (IGF1R (human); compound 0.1 µM): 100%
- residual activity (IGF1R (human); compound 1.0 µM): 93%
- residual activity (JAK2 JH1 JH2 (human); compound 0.1 µM): 108%
- residual activity (JAK2 JH1 JH2 (human); compound 1.0 µM): 75%
- residual activity (LCK (mouse); compound 0.1 µM): 78%
- residual activity (LCK (mouse); compound 1.0 µM): 30%
- residual activity (MAPK10 (human); compound 0.1 µM): 107%
- residual activity (MAPK10 (human); compound 1.0 µM): 90%
- residual activity (MAPK11 (human); compound 0.1 µM): 90%
- residual activity (MAPK11 (human); compound 1.0 µM): 72%
- residual activity (MAPK13 (human); compound 0.1 µM): 99%
- residual activity (MAPK13 (human); compound 1.0 µM): 114%
- residual activity (MAPK8 (human); compound 0.1 µM): 90%
- residual activity (MAPK8 (human); compound 1.0 µM): 52%
- residual activity (MAPKAPK5 (human); compound 0.1 µM): 66%
- residual activity (MAPKAPK5 (human); compound 1.0 µM): 14%
- residual activity (MARK3 (human); compound 0.1 µM): 116%
- residual activity (MARK3 (human); compound 1.0 µM): 77%
- residual activity (MINK1 (human); compound 0.1 µM): 101%
- residual activity (MINK1 (human); compound 1.0 µM): 83%
- residual activity (MKNK1 (human); compound 0.1 µM): 55%
- residual activity (MKNK1 (human); compound 1.0 µM): 13%
- residual activity ([1]; compound 0.1 µM): 104%
- residual activity ([1]; compound 1.0 µM): 110%
- residual activity (PHKG1 (human); compound 0.1 µM): 100%
- residual activity (PHKG1 (human); compound 1.0 µM): 89%
- residual activity (PIM3 (human); compound 0.1 µM): 126%
- residual activity (PIM3 (human); compound 1.0 µM): 80%
- residual activity (ROCK2 (rat); compound 0.1 µM): 116%
- residual activity (ROCK2 (rat); compound 1.0 µM): 83%
- residual activity ([2]; compound 0.1 µM): 106%
- residual activity ([2]; compound 1.0 µM): 95%
- residual activity (SRPK1 (human); compound 0.1 µM): 104%
- residual activity (SRPK1 (human); compound 1.0 µM): 88%
- residual activity (STK3 (human); compound 0.1 µM): 120%
- residual activity (STK3 (human); compound 1.0 µM): 89%
- residual activity (TAOK1 (human); compound 0.1 µM): 103%
- residual activity (TAOK1 (human); compound 1.0 µM): 66%
- residual activity (TBK1 (human); compound 0.1 µM): 105%
- residual activity (TBK1 (human); compound 1.0 µM): 102%
- residual activity (YES1 (human); compound 1.0 µM): 60%
